Results taken from PubChem BioAssay AID2060904 (Molecular Pharmacology Branch, DTP, NCI, 2025).
pIC50: −log10 of the molar value. Each block holds one compound with its values, some of them ahead of it.

System: 349418-098-R-PDC complex spheroid viability
Assay: Anticancer human tumor 349418-098-R-PDC patient-derived lung adenocarcinoma cell line growth inhibition [RAS]
Conditions: for pIC50: curve of first compound; for viability, T/C: stronger effect = lower value
From the text: RAS pathway inhibitors in Combinations in Complex Spheroids
A high-throughput screen of multi-cell type tumor spheroids was designed to identify active combinations of RAS pathway inhibitors and targeted small molecules. Complex spheroids include a stromal component modeled by human endothelial cells (HUVEC) and fibroblasts modeled by human mesenchymal stem cells (MSCs). The concentration ranges selected for each drug and investigational agent were based upon clinically achievable concentrations if the clinical Cmax of the agent was known.
Compounds. The drugs and investigational agents: abemaciclib (NSC768073), cobimetinib (NSC768068), divarasib (GDC6063, NSC841802), docetaxel (NSC628503), GDC-1971 (RLY-1971, NSC841576), gemcitabine (NSC613327), inavolisib (NSC800729), ipatasertib (NSC767898), KB-0742 (NSC834161), MRTX-1133 (NSC836407), osimertinib (NSC779217), RMC-4630 (NSC839698), RMC-6236 (NSC851965), RMC-6291 (NSC852671), Ro-3306 (NSC812927), sapanisertib (NSC764658), SN-38 (NSC673596), staurosporine (NSC755774), SY5609 (NSC837396), and tovorafenib (DAY101, NSC766906), were obtained from the National Cancer Institute (NCI) Developmental Therapeutics Program Chemical Repository. The FDA-approved anticancer drug set is available from the NCI Developmental Therapeutics Program. […] The stock solutions were prepared in dimethyl sulfoxide (DMSO, Sigma-Aldrich, St. Louis, MO, cat. D2650) at 800-fold the tested concentration and stored at -70 degrees C prior to their use. All drugs and investigational agents were tested over a range starting from a high concentration at or near the clinical Cmax and decreasing in half-log increments. If the clinical Cmax for an agent had not been determined, the highest concentration tested was 10 microM.
Cell Culture. All cells were maintained in an incubator at 37 degrees C and 5% CO2 with 95% humidity. The PDC lines were cultured according to standard operating procedures established by the NCI PDMR. All PDCs were thawed and cultured in Matrigel-coated flasks prepared with a working solution of 1X Ham's F-12 nutrient mix, without supplementation (Invitrogen, Waltham, MA, cat. 11765054), 100 U/mL penicillin-streptomycin (Invitrogen, cat. 15140122), and 2.5% Matrigel (Corning Inc., Corning, NY, cat. 354248) for the first three passages. The 362531-283-R-J2-PDC and 782815-120-R-J1-PDC lines were cultured in 6C/Colon 1B media, which includes advanced DMEM/F-12 (Thermo Fisher Scientific, cat. 12634028), 10 mM HEPES (Thermo Fisher Scientific, cat. 15630080), 1X GlutaMAX supplement (Thermo Fisher Scientific, cat. 35050061), 0.1 mg/mL primocin (InvivoGen, San Diego, CA, cat. ant-pm-2), 10% defined fetal bovine serum, heat inactivated (HyClone Laboratories Inc., Logan, UT, cat. SH30070.03HI), 50% L-WRN conditioned media (ATCC, cat. CRL-3276), 1.25 mM N-Acetyl-L-cysteine (Sigma-Aldrich, cat. A9165), 10 mM nicotinamide (Sigma-Aldrich, cat. N0636), 1X B-27 supplement (Thermo Fisher Scientific, cat. 17504044), 1X N-2 supplement (Thermo Fisher Scientific, cat. 17502048), 50 ng/mL human EGF (Thermo Fisher Scientific, cat. PHG0311), and 10 microM Y-27632 dihydrochloride (Tocris Bioscience, cat. 1254). The K12877-001-R-J1-PDC line was cultured in 6I media, which includes all 6C/Colon 1B media plus 10 ng/mL human FGF-10 (PeproTech, cat. 100-26), 1 ng/mL human FGF-2 (PeproTech, cat. 100-18B), 1 µM prostaglandin E2 (Tocris Bioscience, cat. 2296), […] hydrocortisone (Sigma-Aldrich, cat. H4001), and […] bovine insulin (Sigma-Aldrich, cat. I6634). The K86415-001-R-J1-PDC line was cultured in 6D media, which includes all 6C/Colon 1B media components minus the L-WRN conditioned media. The 485176-168-R4-J1-PDC was cultured in PANC media, which includes all 6C/Colon 1B media plus 100 ng/mL human FGF-10 (PeproTech, cat. 100-26), 500 nM SB-431542 (Selleckchem, cat. S1067), and 10 nM gastrin (Tocris Bioscience, cat. 3006). […]
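Also: spheroids exposed to compound for seven days before viability readout.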

pIC50 (second compound 0.000949 µM): 6.07
pIC50 (second compound 0.003 µM): 6.08
pIC50 (second compound 0.00949 µM): 5.94
pIC50 (second compound 0.03 µM): 6.06
pIC50 (second compound 0.0949 µM): 5.92
pIC50 (second compound 0.3 µM): 6.08
Structure (SMILES): CC(C)NCC(C(=O)N1CCN(c2ncnc3c2C(C)CC3O)CC1)c1ccc(Cl)cc1 (stereo unspecified) + CCn1c(-c2cc(N3CCN(C)CC3)cnc2C(C)OC)c2c3cc(ccc31)-c1csc(n1)CC(NC(=O)C1CC1C)C(=O)N1CCCC(N1)C(=O)OCC(C)(C)C2
viability, T/C (second compound 0.000949 µM, first compound 0.0316 µM): 97%
viability, T/C (second compound 0.000949 µM, first compound 0.1 µM): 86.3%
viability, T/C (second compound 0.000949 µM, first compound 0.316 µM): 71.5%
viability, T/C (second compound 0.000949 µM, first compound 1 µM): 47.3%
viability, T/C (second compound 0.000949 µM, first compound 3.16 µM): 23.5%
viability, T/C (second compound 0.000949 µM, first compound 10 µM): 14.2%
viability, T/C (second compound 0.003 µM, first compound 0.0316 µM): 117%
viability, T/C (second compound 0.003 µM, first compound 0.1 µM): 101%
viability, T/C (second compound 0.003 µM, first compound 0.316 µM): 70.2%
viability, T/C (second compound 0.003 µM, first compound 1 µM): 45.8%
viability, T/C (second compound 0.003 µM, first compound 3.16 µM): 28.4%
viability, T/C (second compound 0.003 µM, first compound 10 µM): 15.1%
viability, T/C (second compound 0.00949 µM, first compound 0.0316 µM): 110%
viability, T/C (second compound 0.00949 µM, first compound 0.1 µM): 97.6%
viability, T/C (second compound 0.00949 µM, first compound 0.316 µM): 78.9%
viability, T/C (second compound 0.00949 µM, first compound 1 µM): 53%
viability, T/C (second compound 0.00949 µM, first compound 3.16 µM): 29.3%
viability, T/C (second compound 0.00949 µM, first compound 10 µM): 14.8%
viability, T/C (second compound 0.03 µM, first compound 0.0316 µM): 113%
viability, T/C (second compound 0.03 µM, first compound 0.1 µM): 90.1%
viability, T/C (second compound 0.03 µM, first compound 0.316 µM): 61.3%
viability, T/C (second compound 0.03 µM, first compound 1 µM): 45.9%
viability, T/C (second compound 0.03 µM, first compound 3.16 µM): 34.6%
viability, T/C (second compound 0.03 µM, first compound 10 µM): 11.4%
viability, T/C (second compound 0.0949 µM, first compound 0.0316 µM): 108%
viability, T/C (second compound 0.0949 µM, first compound 0.1 µM): 118%
viability, T/C (second compound 0.0949 µM, first compound 0.316 µM): 90.3%
viability, T/C (second compound 0.0949 µM, first compound 1 µM): 54.5%
viability, T/C (second compound 0.0949 µM, first compound 3.16 µM): 25.4%
viability, T/C (second compound 0.0949 µM, first compound 10 µM): 10.8%
viability, T/C (second compound 0.3 µM, first compound 0.0316 µM): 113%
viability, T/C (second compound 0.3 µM, first compound 0.1 µM): 104%
viability, T/C (second compound 0.3 µM, first compound 0.316 µM): 76.4%
viability, T/C (second compound 0.3 µM, first compound 1 µM): 38.6%
viability, T/C (second compound 0.3 µM, first compound 3.16 µM): 36%
viability, T/C (second compound 0.3 µM, first compound 10 µM): 11.6%

Structure (SMILES): CCN1CCN(Cc2ccc(Nc3ncc(F)c(-c4cc(F)c5nc(C)n(C(C)C)c5c4)n3)nc2)CC1
viability, T/C (compound 0.01 µM): 59.8% [middle of 4 runs]
viability, T/C (compound 0.1 µM): 28.7% [middle of 4 runs]
viability, T/C (compound 0.316 µM): 23.5% [middle of 4 runs]
viability, T/C (compound 1 µM): 17.6% [middle of 4 runs]
